According to patent publication US9663495B2 (YUHAN CORPORATION, priority 2013, dated 2017):

How the values were obtained:
[1] = biological target: T1, GPR119 (Homo sapiens, UniProt Q8TDV5); assay: cAMP Accumulation Assay (GPR119 CRE-bla CHO-K1 cells, LiveBLAzer-FRET B/G); format: cell-based; conditions: for EC50: 5 hours incubation; for Emax (Fold): maximum activity, response ratio versus non-treated control group
T1 construct: host or cells: CHO-K1 (GPR119 CRE-bla, doxycycline-induced)
T1 sequence (Q8TDV5 1-335): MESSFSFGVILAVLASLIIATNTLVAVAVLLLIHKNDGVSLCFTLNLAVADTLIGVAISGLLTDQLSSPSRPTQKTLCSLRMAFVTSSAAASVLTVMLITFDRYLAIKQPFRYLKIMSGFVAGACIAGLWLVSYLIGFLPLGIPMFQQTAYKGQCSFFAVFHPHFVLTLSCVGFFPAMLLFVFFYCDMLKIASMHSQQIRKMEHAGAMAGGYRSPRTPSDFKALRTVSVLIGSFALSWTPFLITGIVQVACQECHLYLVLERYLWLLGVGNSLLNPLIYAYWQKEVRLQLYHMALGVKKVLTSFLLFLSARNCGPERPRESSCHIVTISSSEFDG
Experimental: 32 μl of an assay medium (DMEM supplemented with GlutaMax™ 99%, dialyzed FBS 1%, non-essential amino acid 1 mM, HEPES 25 mM, penicillin 100 U/ml, and streptomycin 100 μg/ml) was added to each well of a 384 black well plate and then the GPR119 CRE-bla CHO-K1 cells (Invitrogen) were seeded in 1×10^4 cells per well. Doxycycline was dissolved in the assay medium in the concentration of 1 μg/ml. The resulting solution (4 μl) was added to each well, which was then incubated in a 5% CO 2 incubator at 37° C. for about 20 to 24 hours. Each test compounds were diluted with the assay medium to prepare 10 samples, which have concentrations ranging from […], respectively. Each samples (8 μl) was added to each well, which was then incubated in a 5% CO2 incubator at 37° C. for 5 hours. In case of the control group, the well was treated with a solution (8 μl) prepared by diluting dimethyl sulfoxide (DMSO) in the assay medium to 1%. The substrate mixture (8 μl) was added to each well, which was then left under darkness at room temperature for 2 hours. The substrate mixture contains the followings: 1 mM LiveBLAzer™-FRET B/G(CCF4-AM) substrate 6 μl, solution B 60 μl, solution C 904 μl, and solution D 30 μl.
Fluorescence intensity was determined under the wavelength conditions of 400 nm/465 nm (excitation/emission) for the blue channel and 400 nm/535 nm (excitation/emission) for the green channel, with the fluorescence microplate reader (SpectraFluor Plus. TECAN). The net activity of each well was calculated by subtracting the average value of the cell-free control group from the value of the unstimulated (i.e., non-treated) control group or the stimulated (i.e., test compound-treated) group at each wavelength. MBX-2982 (Metabolex) was used as a control drug. The response ratio was calculated by dividing the net signal ratio (465 nm/535 nm) of the control drug or the test compound by the net signal ratio (465 nm/535 nm) of the non-treated control group. The relative ratio (R.R) was calculated by dividing the maximum activity [Emax (fold)] of the test compound (i.e., % activity in comparison with the background) by the maximum activity [Emax (fold)] of the control drug (MBX-2982) [Emax (% RR)=(Emax of the test compound/Emax of MBX-2982)×100]. EC50 (half maximal effective concentration) was calculated using the software for statistical analysis “Prism 5.0 (GraphPad)”, based on the values obtained according to concentrations of the test compounds.

[2] = biological target: T1, GPR119; assay: as above; format: cell-based; conditions: (Emax of the test compound/Emax of MBX-2982)x100, 5 hours incubation

Row | SMILES | EC50 [1] [nM] | Emax (Fold) [1] [Fold] | Emax (% RR) [2] [% RR]
1 | CCc1cnc(N2CCN(c3ncc(-c4ccc(-n5cnn(CCNC(=O)OC(C)(C)C)c5=O)c(F)c4)cc3C#N)[C@@H](C)C2)nc1 [Example 16, (S)-tert-butyl 2-(4-(4-(5-cyano-6-(4-(5-ethylpyrimidin-2-yl)-2-methylpiperazin-1-yl)pyridin-3-yl)-2-fluorophenyl)-5-oxo-4,5-dihydro-1H-1,2,4-triazol-1-yl)ethylcarbamate] | 7.2 | 3.3 | 116.8
2 | CCOC(=O)n1ncn(-c2ccc(-c3cnc(N4CCN(c5ncc(CC)cn5)C[C@@H]4C)c(C#N)c3)cc2F)c1=O [Example 24, (S)-ethyl 4-(4-(5-cyano-6-(4-(5-ethylpyrimidin-2-yl)-2-methylpiperazin-1-yl)pyridin-3-yl)-2-fluorophenyl)-5-oxo-4,5-dihydro-1H-1,2,4-triazol-1-carboxylate] | 4.5 | 3.6 | 124.6
3 | C=C(C)OC(=O)N(C)C1CCN(c2ncc(-c3ccc(-n4cnn(C(C)C)c4=O)c(F)c3)cc2C#N)CC1 [Example 59, prop-1-en-2-yl 1-(3-cyano-5-(3-fluoro-4-(1-isopropyl-5-oxo-1H-1,2,4-triazol-4(5H)-yl)phenyl)pyridin-2-yl)piperidin-4-yl(methyl)carbamate] | 31 | 2.5 | 100.8
4 | CCc1cnc(N2CCN(c3ncc(-c4ccc(-n5cnn(CC#N)c5=O)c(F)c4)cc3C#N)[C@@H](C)C2)nc1 [Example 18, (S)-5-(4-(1-(cyanomethyl)-5-oxo-1H-1,2,4-triazol-4(5H)-yl)-3-fluorophenyl)-2-(4-(5-ethylpyrimidin-2-yl)-2-methylpiperazin-1-yl)nicotinonitrile] | 17 | 2.9 | 104.6
5 | CCc1cnc(N2CCN(c3ncc(-c4ccc(-n5cnn(CC(C)(C)C#N)c5=O)c(F)c4)cc3C#N)[C@@H](C)C2)nc1 [Example 25, (S)-5-(4-(1-(2-cyano-2-methylpropyl)-5-oxo-1H-1,2,4-triazol-4(5H)-yl)-3-fluorophenyl)-2-(4-(5-ethylpyrimidin-2-yl)-2-methylpiperazin-1-yl)nicotinonitrile] | 2.6 | 3.3 | 116.0
6 | CCCn1ncn(-c2ccc(-c3cnc(N4CCC(c5noc(C(C)C)n5)CC4)c(C#N)c3)cc2F)c1=O [Example 66, 5-(3-fluoro-4-(5-oxo-1-propyl-1H-1,2,4-triazol-4(5H)-yl)phenyl)-2-(4-(5-isopropyl-1,2,4-oxadiazol-3-yl)piperidin-1-yl)nicotinonitrile] | 2.5 | 3.1 | 122.1
7 | CCn1ncn(-c2ccc(-c3cnc(N4CCC(c5nc(C(C)C)no5)CC4)c(C#N)c3)cc2)c1=O [Example 65, 5-(4-(1-ethyl-5-oxo-1H-1,2,4-triazol-4(5H)-yl)phenyl)-2-(4-(3-isopropyl-1,2,4-oxadiazol-5-yl)piperidin-1-yl)nicotinonitrile] | 2.4 | 3.6 | 123.8
8 | COCn1ncn(-c2ccc(-c3cnc(N4CCN(c5noc(C(C)C)n5)CC4)c(C#N)c3)cc2)c1=O [Example 48, 2-(4-(5-isopropyl-1,2,4-oxadiazol-3-yl)piperazin-1-yl)-5-(4-(1-(methoxymethyl)-5-oxo-1H-1,2,4-triazol-4(5H)-yl)phenyl)nicotinonitrile] | 16 | 3.0 | 109.1
9 | CCCn1ncn(-c2ccc(-c3cnc(N4CCC(c5nc(C(C)C)no5)CC4)c(C#N)c3)cc2F)c1=O [Example 62, 5-(3-fluoro-4-(5-oxo-1-propyl-1H-1,2,4-triazol-4(5H)-yl)phenyl)-2-(4-(3-isopropyl-1,2,4-oxadiazol-5-yl)piperidin-1-yl)nicotinonitrile] | 1.3 | 3.5 | 122.7
10 | CCc1cnc(N2CCN(c3ncc(-c4ccc(-n5cnn(CN6CCCC6)c5=O)c(F)c4)cc3C#N)[C@@H](C)C2)nc1 [Example 28, (S)-2-(4-(5-ethylpyrimidin-2-yl)-2-methylpiperazin-1-yl)-5-(3-fluoro-4-(5-oxo-1-(pyrrolidin-1-ylmethyl)-1H-1,2,4-triazol-4(5H)-yl)phenyl)nicotinonitrile] | 4 | 3.9 | 145.6
11 | CCc1cnc(N2CCN(c3ncc(-c4ccc(-n5cnn(C)c5=O)c(F)c4)cn3)[C@@H](C)C2)nc1 [Example 7, (S)-4-(4-(2-(4-(5-ethylpyrimidin-2-yl)-2-methylpiperazin-1-yl)pyrimidin-5-yl)-2-fluorophenyl)-1-methyl-1H-1,2,4-triazol-5(4H)-one] | 26 | 2.5 | 111.5
12 | CC(C)c1nc(C2CCN(c3ncc(-c4ccc(-n5cnn(CN6CCCC6)c5=O)c(F)c4)cc3C#N)CC2)no1 [Example 68] | 2.6 | 3.8 | 130.8
13 | CCc1cnc(N2CCN(c3ncc(-c4ccc(-n5cnn(CCN(C(=O)OC(C)(C)C)C(C)C)c5=O)c(F)c4)cc3C#N)[C@@H](C)C2)nc1 [Example 19, (S)-tert-butyl 2-(4-(4-(5-cyano-6-(4-(5-ethylpyrimidin-2-yl)-2-methylpiperazin-1-yl)pyridin-3-yl)-2-fluorophenyl)-5-oxo-4,5-dihydro-1H-1,2,4-triazol-1-yl)ethyl(isopropyl)carbamate] | 5.4 | 3.5 | 113.0
14 | CCc1cnc(N2CCN(c3ncc(-c4ccc(-n5cnn(CCNS(C)(=O)=O)c5=O)c(F)c4)cc3C#N)[C@@H](C)C2)nc1 [Example 23, (S)—N-(2-(4-(4-(5-cyano-6-(4-(5-ethylpyrimidin-2-yl)-2-methylpiperazin-1-yl)pyridin-3-yl)-2-fluorophenyl)-5-oxo-4,5-dihydro-1H-1,2,4-triazol-1-yl)ethyl)methanesulfonamide] | 7.9 | 3.4 | 111.7
15 | CCc1cnc(N2CCN(c3ncc(-c4ccc(-n5cnn(CN6CCN(C)CC6)c5=O)c(F)c4)cc3C#N)[C@@H](C)C2)nc1 [Example 27, (S)-2-(4-(5-ethylpyrimidin-2-yl)-2-methylpiperazin-1-yl)-5-(3-fluoro-4-(1-((4-methylpiperazin-1-yl)methyl)-5-oxo-1H-1,2,4-triazol-4(5H)-yl)phenyl)nicotinonitrile] | 3.1 | 4.0 | 149.4
16 | CC(C)n1ncn(-c2ccc(-c3cnc(N4CCN(C(=O)OC(C)(C)C)C[C@@H]4C)nc3)cc2F)c1=O [Example 3, (S)-tert-butyl 4-(5-(3-fluoro-4-(1-isopropyl-5-oxo-1H-1,2,4-triazol-4(5H)-yl)phenyl)pyrimidin-2-yl)-3-methylpiperazin-1-carboxylate] | 62 | 3.4 | 113.4
17 | CCc1cnc(N2CCN(c3ncc(-c4ccc(-n5cnn(C[C@H](O)CO)c5=O)c(F)c4)cc3C#N)CC2)nc1 [Example 36, (S)-5-(4-(1-(2,3-dihydroxypropyl)-5-oxo-1H-1,2,4-triazol-4(5H)-yl)-3-fluorophenyl)-2-(4-(5-ethylpyrimidin-2-yl)piperazin-1-yl)nicotinonitrile] | 13.2 | 4.3 | 118.1
18 | CCc1cnc(N2CCN(c3ncc(-c4ccc(-n5cnn(CCNC(C)=O)c5=O)c(F)c4)cc3C#N)[C@@H](C)C2)nc1 [Example 26, (S)—N-(2-(4-(4-(5-cyano-6-(4-(5-ethylpyrimidin-2-yl)-2-methylpiperazin-1-yl)pyridin-3-yl)-2-fluorophenyl)-5-oxo-4,5-dihydro-1H-1,2,4-triazol-1-yl)ethyl)acetamide] | 20 | 3.4 | 112.5
